According to article PMC2680759, “Non-Invasive Molecular Imaging of Fibrosis Using a Collagen-Targeted Peptidomimetic of the Platelet Collagen Receptor Glycoprotein VI” (PLoS ONE, 2009):
Bridges are numbered along the chain shown (N, C = ends). Where no end group is shown, it is not given here.

Columns and labels:
[1] = test system: collagen rich lesions of fibrotic lungs; test: Histochemical analysis of healthy and fibrotic lung sections; set-up: species or system mouse; conditions: paraffin embedded lung sections of bleomycin-treated mice, HRP-coupled streptavidin
Method: Figure 6 Imaging of lung fibrosis. A: Paraffin embedded sections of lungs from a bleomycin-treated mice were incubated with B-collagelin and detected using HRP-coupled streptavidin. Sections were counter-stained with hematoxylin. Contiguous serial sections were stained with picrosirius red. Representative images are shown. B: Whole body planar scintigraphy of a bleomycin-treated mouse (left) and a control mouse (right). Representative images acquired one hour after the injection of 99mTc-collagelin are shown. C: Corresponding lung autoradiography and histology (picrosirius staining) showing the colocalisation of 99mTc-collagelin with fibrosis. D: Lung autoradiogaphy and histology from a mice treated with the control 99mTc-Pc.

[2] = test system: fibrotic myocardial infarction scar; assay type: in vivo, rat; conditions: rat, in vivo
Method: Myocardial infarction of the left ventricle was induced in rats as follows. Male Wistar rats (CERJ, France) were housed in a controlled environment and fed with a standard rat chow. Myocardial infarction of the left ventricle was induced by ligature of the left descending coronary artery performed under general anesthesia [1 mL.kg^−1 i.p. ketamine (Imalgene 500, Merial) and 0.5 mL.kg^−1 i.p. xylazine (Rompun, Bayer)] and positive pressure ventilation, as described. This protocol was performed under a permit from the French Veterinary Services Directorate.
Two types of control animals were used: healthy rats, and healthy rats which had undergone a simple throracotomy (sham-operated). ^99mTc-biotin-collagelin blood kinetics and biodistribution were investigated by counting blood samples (taken from a jugular catheter) for 6 h after i.v. injection, and organs (extracted after sacrifice) 2 h after injection in a gamma-counter, together with aliquots of the injected preparation (CobraII, Packard, Meriden, USA). Ex vivo myocardial labeling and isotopic imaging were performed 4 weeks after the coronary ligature (or throracotomy), when the lesions had had the time to heal.
For in vivo experiments, radiotracers (70 MBq) were administered i.v. to anesthetized animals (pentobarbital i.p. 6 mg/100 g BW, Ceva Santé Animale, France) within 2 h of radiolabeling. Scintigraphic images were obtained 0–2 h, 4 h, 6 h, 10 h and 24 h after injecting ^99mTc-streptavidin-biotin peptides and 0–3 h after injecting ^99mTc-biotinylated peptides. Planar and tomographic 1-h acquisitions were performed using a dedicated small animal γIMAGER system (Biospace Lab, Paris, France) equipped with 2 parallel low-energy high-resolution collimators (matrix 128×128, 15% energy window centered on 140 KeV). Tracer uptake in the left cardiac area was assessed visually. Two regions of interest were drawn on the scintigrams, over the heart and over the right lung. The mean activity (cpm) per pixel was determined in each region of interest. Then heart-to-lung activity ratios (HLR) were calculated on both planar and transversal tomographic images.

9O12.2 IgG = test: SPR, 9O12.2 IgG injected over immobilized B-collagelin; assay type: binding; conditions: SPR, peptide reduced by DTT on the sensorchip, IgG 8 µg/ml
Method: (§1) 9O12.2 IgG was injected over biotin-peptides coupled to an SA-sensorchip in a Biacore 2000 instrument. […] In some experiments, the peptide was reduced by DTT on the sensor chip before the IgG was injected. Competition experiments were performed by mixing the IgG with recombinant soluble GPVI (25 µg.mL^−1). Collagen binding to the peptide was analyzed by injecting type-I collagen (200 µg.mL^−1) onto the peptide-coated sensorchip. Conversely, biotin-peptides (125, 250, 500 and 1000 µg.mL^−1) were perfused over fibrillar collagen immobilized on a CM5-sensorchip.

platelet function = test: Effect on platelet function; conditions: stated in discussion, no method given
type III collagen = target: T1, type III collagen (Homo sapiens, UniProt P02461); test: Solid phase assay, type III collagen; assay type: binding; conditions: biotin-peptide 50 µg/mL, microtitration plate, n = 3
T1 sequence (P02461 154-1221 limits assumed): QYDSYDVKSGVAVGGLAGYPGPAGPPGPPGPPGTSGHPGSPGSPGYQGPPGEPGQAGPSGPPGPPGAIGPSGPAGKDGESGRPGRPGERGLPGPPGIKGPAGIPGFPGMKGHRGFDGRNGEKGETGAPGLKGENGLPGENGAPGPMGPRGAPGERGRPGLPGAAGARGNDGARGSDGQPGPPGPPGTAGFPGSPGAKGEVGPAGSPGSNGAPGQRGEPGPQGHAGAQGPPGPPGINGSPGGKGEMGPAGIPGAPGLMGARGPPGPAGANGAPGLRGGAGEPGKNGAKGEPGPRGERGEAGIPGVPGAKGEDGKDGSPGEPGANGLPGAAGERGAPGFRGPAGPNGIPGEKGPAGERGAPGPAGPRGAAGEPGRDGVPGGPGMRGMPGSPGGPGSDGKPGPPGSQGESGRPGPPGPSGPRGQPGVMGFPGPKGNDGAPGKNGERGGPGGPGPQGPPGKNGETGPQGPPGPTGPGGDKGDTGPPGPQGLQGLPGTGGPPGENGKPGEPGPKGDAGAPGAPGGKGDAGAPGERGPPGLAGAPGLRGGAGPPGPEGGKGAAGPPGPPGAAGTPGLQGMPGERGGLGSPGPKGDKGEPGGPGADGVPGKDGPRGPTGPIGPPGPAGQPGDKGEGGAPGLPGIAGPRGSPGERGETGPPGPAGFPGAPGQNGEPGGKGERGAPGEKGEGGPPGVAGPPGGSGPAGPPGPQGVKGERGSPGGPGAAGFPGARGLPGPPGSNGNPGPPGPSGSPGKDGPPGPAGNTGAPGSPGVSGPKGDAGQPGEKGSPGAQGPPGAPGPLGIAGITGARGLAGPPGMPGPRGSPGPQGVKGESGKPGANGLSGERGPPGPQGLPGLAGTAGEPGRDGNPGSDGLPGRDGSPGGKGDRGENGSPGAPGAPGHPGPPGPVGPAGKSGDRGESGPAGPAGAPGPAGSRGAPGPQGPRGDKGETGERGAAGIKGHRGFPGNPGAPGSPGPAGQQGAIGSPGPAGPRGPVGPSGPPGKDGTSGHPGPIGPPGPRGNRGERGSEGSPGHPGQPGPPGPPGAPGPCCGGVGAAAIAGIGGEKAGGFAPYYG

[3] = target: fibrillar type I collagen (Homo sapiens, UniProt P02452+P08123); test: SPR, biotin-peptides perfused over collagen-coated sensorchip; assay type: binding; conditions: fibrillar type I collagen on CM5-sensorchip
Method: as §1

[4] = test system: collagen in sections of rat aorta and tail tendon; test: Histochemical analysis of rat aorta and tail tendon sections; conditions: frozen sections of rat aorta and tail tendon, biotin-peptide 200 µg/mL, HRP-coupled streptavidin
Method: Sections were counter-stained with hematoxylin-eosin (Merck). Collagen was stained using picrosirius red. Sections ([…]) of rat tail tendon were processed as above.

Sequence of fibrillar type I collagen (P02452 162-1218 limits assumed): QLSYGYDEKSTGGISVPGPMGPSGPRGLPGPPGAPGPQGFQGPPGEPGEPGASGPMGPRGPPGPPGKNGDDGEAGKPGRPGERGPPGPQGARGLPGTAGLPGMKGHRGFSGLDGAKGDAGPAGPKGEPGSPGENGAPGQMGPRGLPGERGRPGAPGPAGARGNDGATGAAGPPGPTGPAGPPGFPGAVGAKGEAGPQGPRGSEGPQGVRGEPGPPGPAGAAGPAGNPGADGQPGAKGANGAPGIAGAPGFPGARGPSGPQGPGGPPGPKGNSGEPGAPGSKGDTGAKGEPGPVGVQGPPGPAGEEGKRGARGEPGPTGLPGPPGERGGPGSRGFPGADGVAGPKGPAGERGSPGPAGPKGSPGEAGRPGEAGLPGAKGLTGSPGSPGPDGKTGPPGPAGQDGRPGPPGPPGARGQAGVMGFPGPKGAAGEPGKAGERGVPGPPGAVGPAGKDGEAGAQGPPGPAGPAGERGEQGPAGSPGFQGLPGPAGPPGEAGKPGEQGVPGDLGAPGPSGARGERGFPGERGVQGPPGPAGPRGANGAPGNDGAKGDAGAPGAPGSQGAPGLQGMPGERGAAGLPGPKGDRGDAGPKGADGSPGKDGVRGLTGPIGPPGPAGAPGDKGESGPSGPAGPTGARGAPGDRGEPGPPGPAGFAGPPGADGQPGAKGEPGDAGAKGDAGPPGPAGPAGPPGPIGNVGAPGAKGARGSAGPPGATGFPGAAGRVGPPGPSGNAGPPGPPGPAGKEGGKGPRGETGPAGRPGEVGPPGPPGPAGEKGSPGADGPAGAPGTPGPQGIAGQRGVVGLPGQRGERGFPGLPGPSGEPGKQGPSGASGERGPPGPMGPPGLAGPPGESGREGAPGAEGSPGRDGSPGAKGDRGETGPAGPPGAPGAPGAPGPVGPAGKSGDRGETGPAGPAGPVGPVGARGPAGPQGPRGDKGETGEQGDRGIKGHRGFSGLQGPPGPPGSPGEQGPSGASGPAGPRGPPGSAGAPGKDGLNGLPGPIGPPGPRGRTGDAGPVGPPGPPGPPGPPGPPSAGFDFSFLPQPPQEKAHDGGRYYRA
Sequence of fibrillar type I collagen (P08123 80-1119 limits assumed): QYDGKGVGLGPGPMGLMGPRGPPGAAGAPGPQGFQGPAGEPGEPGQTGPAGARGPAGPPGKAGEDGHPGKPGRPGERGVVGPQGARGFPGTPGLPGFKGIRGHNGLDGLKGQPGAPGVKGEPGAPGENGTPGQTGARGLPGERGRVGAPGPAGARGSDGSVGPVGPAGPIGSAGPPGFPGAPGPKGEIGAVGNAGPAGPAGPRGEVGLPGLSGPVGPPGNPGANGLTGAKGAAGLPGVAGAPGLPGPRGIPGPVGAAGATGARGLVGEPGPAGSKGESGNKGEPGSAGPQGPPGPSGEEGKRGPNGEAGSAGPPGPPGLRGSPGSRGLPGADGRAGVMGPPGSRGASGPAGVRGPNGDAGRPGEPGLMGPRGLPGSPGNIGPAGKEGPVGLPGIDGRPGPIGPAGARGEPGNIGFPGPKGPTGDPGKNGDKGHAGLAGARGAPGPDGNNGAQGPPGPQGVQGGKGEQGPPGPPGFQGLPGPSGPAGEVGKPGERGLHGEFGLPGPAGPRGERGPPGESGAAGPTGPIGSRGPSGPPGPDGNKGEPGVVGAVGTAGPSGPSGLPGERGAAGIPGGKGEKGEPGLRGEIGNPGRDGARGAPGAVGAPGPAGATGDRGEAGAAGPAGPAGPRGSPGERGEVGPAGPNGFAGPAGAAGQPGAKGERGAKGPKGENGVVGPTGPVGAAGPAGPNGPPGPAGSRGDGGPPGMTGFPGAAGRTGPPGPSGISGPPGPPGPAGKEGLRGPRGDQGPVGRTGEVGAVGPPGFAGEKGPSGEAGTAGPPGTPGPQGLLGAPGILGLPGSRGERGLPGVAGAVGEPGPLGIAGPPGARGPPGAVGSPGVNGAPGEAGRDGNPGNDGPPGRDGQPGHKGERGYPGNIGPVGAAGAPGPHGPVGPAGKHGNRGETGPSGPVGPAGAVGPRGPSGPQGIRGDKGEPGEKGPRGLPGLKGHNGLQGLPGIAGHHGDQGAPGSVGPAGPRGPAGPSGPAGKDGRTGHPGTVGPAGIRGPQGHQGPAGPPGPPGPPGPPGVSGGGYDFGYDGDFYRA

CSCC[C@@H]1NC(=O)[C@H](C(C)C)NC(=O)[C@H](CCCNC(=N)N)NC(=O)CNC(=O)[C@@H]2CCCN2C(=O)[C@@H](NC(=O)CNC(=O)[C@H](CO)NC(=O)CNC(=O)[C@H](CO)NC(=O)CCCC[C@@H]2SC[C@@H]3NC(=O)N[C@@H]32)CSSC[C@@H](C(N)=O)NC(=O)[C@@H]2CCCN2C(=O)CNC(=O)[C@H](CCC(=O)O)NC(=O)[C@H](CC(=O)O)NC(=O)[C@H](CC(=O)O)NC(=O)CNC(=O)[C@H](CC(C)C)NC(=O)[C@H](Cc2c[nH]cn2)NC(=O)[C@H](CC(C)C)NC(=O)CNC(=O)[C@H](Cc2c[nH]cn2)NC1=O [collagelin]
Histochemical staining of lung sections [1]: coincided with the collagen rich lesions
Accumulation of the tracer in the skin of the animals [2]: did not notice any accumulation
Uptake in bone marrow [2]: low level
Binding of 9O12.2 IgG to reduced collagelin (9O12.2 IgG): did not bind
Effect on platelet function (platelet function): no effect
Binding to immobilized type III collagen (type III collagen): bound

SGSGCGPQGARGLTGASAGGPC (disulfide 5-22 (inferred)) [reference compound]
Binding to collagen-coated sensorchip [3]: did not bind
Binding to immobilized type III collagen (type III collagen): did not bind
Histochemical staining of tissue collagen [4]: not
